Assay results reported in patent publication US9795597B2, “Cyclopropylamines as LSD1 inhibitors” (GlaxoSmithKline Intellectual Property (No.2) Limited, priority 2011, dated 2017).
Structures can show the parent of a compound that is named as a salt.

Key:
LSD1 = target: T1, LSD1 (Homo sapiens, UniProt O60341); assay: Biochemical assay for LSD-1 activity (luminescence, H3K4 dimethylated peptide substrate); conditions: average of two or more tests; 30 min preincubation of enzyme and compound; read-out: LSD1 PIC50 MEAN (converted)
T1 construct: made in house
Protocol: Biochemical Assay for LSD-1 Activity
The LSD-1 luminescence assay is performed in a buffer containing 25 mM Tris, pH 7.5, 50 mM potassium chloride, 0.02% heat-denatured BSA, 2 mM CHAPS and milliQ ultrapure water. […] The enzyme and test compound are allowed to incubate together for 30 minutes at room temperature. Two microliters of the substrate mix are then added to each well of the plate to initiate the reaction. The plates are covered, protected from light and allowed to incubate for two hours at room temperature. Then, 4 uL of HyPerBlu peroxide detection luminescence reagent (Lumigen/Beckman Coulter, cat# HPB-00005) is added to each well to quench the demethylase reaction and generate the peroxide-dependent luminescence signal. The plates are then incubated for 15-30 minutes in the dark at room temperature prior to being read for Luminescence using a Perkin Elmer Viewlux plate reader. Percent inhibition is calculated based on no compound and no enzyme controls, and inhibition curves are then plotted to determine PIC50 values.

MAO-B = target: T2, MAO-B (Homo sapiens, UniProt P27338); assay: Biochemical assay for MAO-B activity (FLINT, benzylamine/amplex red); conditions: average of two or more tests; 30 min preincubation of enzyme and compound; read-out: MAOB PIC50 MEAN (converted)
T2 construct: purchased Gentest-BD Biosciences 456284
T2 sequence (P27338 1-520): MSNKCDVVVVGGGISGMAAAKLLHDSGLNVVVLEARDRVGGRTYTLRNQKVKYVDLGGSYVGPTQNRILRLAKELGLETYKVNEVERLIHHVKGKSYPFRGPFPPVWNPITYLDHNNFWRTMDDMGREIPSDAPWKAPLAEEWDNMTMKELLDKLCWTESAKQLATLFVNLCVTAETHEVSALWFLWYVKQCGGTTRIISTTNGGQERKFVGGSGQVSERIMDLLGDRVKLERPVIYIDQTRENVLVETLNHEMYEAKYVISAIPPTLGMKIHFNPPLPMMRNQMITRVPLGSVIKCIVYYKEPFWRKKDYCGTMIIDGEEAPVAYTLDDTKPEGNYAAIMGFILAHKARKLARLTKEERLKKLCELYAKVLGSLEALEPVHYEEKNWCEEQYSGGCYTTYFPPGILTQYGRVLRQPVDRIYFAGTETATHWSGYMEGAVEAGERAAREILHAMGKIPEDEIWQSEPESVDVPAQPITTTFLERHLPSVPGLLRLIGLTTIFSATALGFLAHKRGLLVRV
Protocol: Biochemical Assay for MAO-B Activity
The MAO-B FLINT assay is performed in a buffer containing 50 mM potassium phospate, pH 7.4, in milliQ ultrapure water. […] The enzyme and test compound are allowed to incubate together for 30 minutes at room temperature. Five microliters of the substrate mix are then added to each well of the plate to initiate the reaction. The plates are covered, protected from light and allowed to incubate for one hour at room temperature. […] Percent inhibition is calculated based on no compound and no enzyme controls, and inhibition curves are then plotted to determine PIC50 values.

IC50 (LSD1)	IC50 (MAO-B)	Structure (SMILES)
0.158 µM	31.6 µM	O=C(O)c1ccc(CN2CC[C@H](CN[C@@H]3C[C@H]3c3ccccc3)C2)cc1 [Example 28a, 4-{[(3R)-3-({[(1R,2S)-2-Phenylcyclopropyl]amino}methyl)-1-pyrrolidinyl]methyl}benzoic acid]
0.0794 µM	25.1 µM	O=C(O)c1ccc(CN2CC[C@@H](CN[C@@H]3C[C@H]3c3ccccc3)C2)cc1 [Example 28b, 4-{[(3S)-3-({[(1R,2S)-2-Phenylcyclopropyl]amino}methyl)-1-pyrrolidinyl]methyl}benzoic acid]

Further lines, the compound ahead of its results:

Structure (SMILES)	IC50 (LSD1)	IC50 (MAO-B)
CC(C)(C)OC(=O)N1CCC(CN[C@H]2C[C@@H]2c2ccccc2)CC1 [Example 3, 1,1-Dimethylethyl 4-({[(1S,2R)-2-phenylcyclopropyl]amino}methyl)-1-piperidinecarboxylate]	0.631 µM	7.94 µM
O=C(O)c1ccc(CN2CCC(CN[C@@H]3C[C@H]3c3ccccc3)CC2)cc1 [Example 29, 4-((4-((((1R,2S)-2-phenylcyclopropyl)amino)methyl)piperidin-1-yl)methyl)benzoic acid]	0.158 µM	25.1 µM
O=C(O)c1ccc(CCCN2CCC(CN[C@@H]3C[C@H]3c3ccccc3)CC2)cc1 [Example 30, 4-{3-[4-({[(1R,2S)-2-Phenylcyclopropyl]amino}methyl)-1-piperidinyl]propyl}benzoic acid 2 HCl]	0.0126 µM	31.6 µM
O=C(O)CCN1CCC(CN[C@@H]2C[C@H]2c2ccccc2)CC1 [Example 71, 3-(4-((((1R,2S)-2-Phenylcyclopropyl)amino)methyl)piperidin-1-yl)propanoic acid]	0.1 µM	7.94 µM
O=C(O)c1ccc(CCN2CCC(CN[C@@H]3C[C@H]3c3ccccc3)CC2)cc1 [Example 123, 4-(2-(4-((((1R,2S)-2-phenylcyclopropyl)amino)methyl)piperidin-1-yl)ethyl)benzoic acid]	0.0316 µM	20 µM
O=C(O)CCN1CC[C@H](CN[C@@H]2C[C@H]2c2ccccc2)C1 [Example 150, 3-((R)-3-((((1R,2S)-2-Phenylcyclopropyl)amino)methyl)pyrrolidin-1-yl)propanoic acid]	0.0251 µM	79.4 µM
